Data on four compounds can be found in patent publication US20170014455A1, “INDUCING BROWN FAT FATE AND FUNCTION” (The J. David Gladstone Instiutes, a testamentary trust …, priority 2014, published 2017).

Structures are written as SMILES.

The subject of test [1] is primary brown pre-adipocytes (pre-BAT). Kind of test: Differentiation of primary brown pre-adipocytes. The test is classed as cell-based. Here is the method:
(§1) C2C12, 3T3-L1 and C3H10T1/2 cells were purchased from ATCC. Primary brown pre-adipocytes were kindly donated by Prof. C. Ronald Kahn (Harvard University). Primary myoblasts were purified from mouse limb muscles and cultured in growth medium (F10+20% FBS+5 ng/ml bFGF) in Matrigel-coated plates (Xiao et al., Cell Res 21, 350-364 (2011)). Adipocyte differentiation was induced by treating cells for 2 days in basal adipogenesis medium (AM) (850 nM insulin, 1 nM T3, 0.5 mM isobuylmethylxanthine, […] indomethacin, 5 μM dexamethasone in10% FBS DMEM). Then cells were switched to 10% FBS DMEM containing 850 nM insulin and 1 nM T3 for another 4-6 days. To stimulate thermogenesis, cells were stimulated with 10 μM forskolin for 4 h.
(§2) Total RNA from cell lines were purified using Qiagen kit, and total RNA from mouse tissues was extracted using Trizol. Complementary DNA was prepared from total RNA with the iScript DNA synthesis kit (Bio-Rad). Quantitative PCR reactions contained SYBR-Green fluorescent dye (ABI). RT-PCR was also used to confirm some gene expression. Relative mRNA expression was determined by the ΔΔ-Ct method with GAPDH as an endogenous control.
Primary brown pre-adipocytes cells efficiently differentiated into brown adipose tissue in the conventional adipogenesis medium.

Test [2] has as its system 3T3-L1 white pre-adipocytes. Briefly: Differentiation and gene expression of 3T3-L1 white pre-adipocytes under brown adipogenic conditions. Type of test: cell-based. Here is the method:
(§3) C2C12, 3T3-L1 and C3H10T1/2 cells were purchased from ATCC. Primary brown pre-adipocytes were kindly donated by Prof. C. Ronald Kahn (Harvard University). […] Then cells were switched to 10% FBS DMEM containing 850 nM insulin and 1 nM T3 for another 4-6 days. To stimulate thermogenesis, cells were stimulated with 10 μM forskolin for 4 h.
as §2

For test [3], the system named is C3H10T1/2 mesenchymal cells. Briefly: Adipogenic induction and gene expression in C3H10T1/2 mesenchymal cells. The test is classed as cell-based. On the procedure: as §3, §2
For test [4], the system named is C2C12 myoblast cell line. Briefly: Adipogenesis of C2C12 myoblasts, Oil-red-O staining of lipid droplets (high-throughput phenotypic screen and follow-up). The test is classed as cell-based, mouse. On the procedure: as §1
To identify small molecules that mimic the BAT-inducing activity of Prdm16, a high-throughput phenotypic screen of 20,000 compounds was performed using the C2C12 myoblast cell line with lipid droplets stained by Oil-red-O (ORO) as readout (FIG. 1A). […] In the basal adipogenesis medium (AM), no adipocyte-like cells could be induced from C2C12 myoblasts.

Test [5] relates to C3H10T1/2 cells. Kind of test: Ciclopirox and IOX2 gene expression in C3H10T1/2 cells. The test is classed as cell-based. The settings on record: 0.1 μM to 50 μM. Here is the method: as §1, §2
C3H10T1/2 cells were incubated in concentrations of ciclopirox and IOX2 that varied from 0.1 μM to 50 μM. Gene expression levels of genes correlated with the brown adipose tissue phenotype was measured using procedures described in Example 1.

Test [6] concerns primary myoblasts. Kind of test: Bexarotene with PRDM16 overexpression in primary myoblasts. Type of test: cell-based, mouse. On the procedure:
as §1, §2

Test [7] is described as follows: Oral bexarotene in chow-fed mice: body weight, indirect calorimetry, fat depots, tissue qPCR. Type of test: in vivo, C57BL/6N mice. The settings on record: 50 mg/kg/day oral, 4 weeks. Here is the method: as §2
C57BL/6N mice were fed ad libitum a standard laboratory chow diet (LabDiet 5053, LabDiet, Purina Mills, Richmond, Ind.). Animals were housed under 12-hour light-dark cycles with controlled temperature (23±1° C.). […] All animal experiments were conducted in accordance with the institutional Guidelines for humane treatment of laboratory animals of HKU Animal Care and Use Committee.
Whole-body oxygen consumption was measured using an open circuit indirect calorimetry system with automatic temperature and light controls (Columbus Instruments). Mice had access ad libitum to chow and water in respiration chambers, and data were recorded for a 48 h period […] acclimatized for 24 h.
In general terms: Real-time PCR tracks product formation cycle by cycle.

Test [8] in a line: Bexarotene in high fat diet mice: body weight, fat weights, GTT, ITT. The test is classed as in vivo, C57BL/6J mice. The settings on record: 50 mg/kg daily i.p., high fat diet 4 weeks. On the procedure:
Male mice (8-week-old, C57BL/6J) were housed in metabolism cages and maintained on a 12 h light-dark cycle at 23° C. The mice were fed a high fat diet (HFD) (21.9 kJ/g, 60% of energy as fat, 20% of energy as protein, 20% of energy as carbohydrate; D12492; Research Diet, New Brunswick, N.J., USA) for four weeks.
Glucose and insulin tolerance tests were performed on the mice at the end of the four week dosing period. Mice were fasted overnight and injected intraperitoneally (i.p.) with 20% glucose at a dose of 2 g/kg body weight for glucose tolerance tests (GTTs). For insulin tolerance tests (ITTs), mice were starved for 6 h and i.p. injected with 0.5 U/kg body weight of recombinant human insulin (Eli Lilly). Blood glucose was monitored from the tail vein blood using a glucometer (ACCU-CHEK Advantage; Roche Diagnostics China, Shanghai, China) at various time points. Mouse body weight, subcutaneous (inguinal fat; SubQ fat), and epididymal adipose tissue weight (epidi weight) were also determined at the end of the 4 week test.

Test [9] deals with C2C12 cells over-expressing RXRα, RXRβ or RXRγ. Briefly: Bexarotene in C2C12 cells overexpressing RXRα, RXRβ or RXRγ. Type of test: cell-based, mouse. Here is the method:
as §1
Mouse retinoid X receptor-alpha (RXRα) and retinoid X receptor-gamma (RXRγ) plasmids were from Dr. Ronald Evans (Salk Institute) and mouse RXRβ plasmid was purchased from Origene. These three RXR fragments were subcloned into pMXs vectors to generate a retrovirus construct (Yamanaka lab, Gladstone Institutes). Non-target shRNA(shNT), shRXRα, shRXRβ, and shRXRγ lentivirus constructs were purchased from Sigma-Aldrich. Retrovirus and lentivirus constructs were packaged in Plat E and 293T cells, respectively.
as §2
To further characterize the role of retinoid receptors, the RXRα, RXRβ and RXRγ subtype receptors were overexpressed in C2C12 cells.

The test system of test [10] is C2C12 cells. The note with it: 2-day treatment. Here is the method:
Mouse genome-wide gene expression analyses were performed using Affymetrix Mouse Gene 1.0 ST Array. […] Microarray analyses were performed in duplicate from independent biologic samples, according to the standard Affymetrix Genechip protocol. Data were normalized and analyzed using Affymetrix Expression Console and Transcriptome Analysis Console (TAC) software. […] The differential expression gene list was further analyzed in DAVID GO functional annotation and GO-Elite (Zambon et al., Bioinformatics 28: 2209-2210 (2012)).

The subject of test [11] is primary mouse embryonic fibroblast (MEF) cells. Kind of test: Adipogenesis and gene expression in primary mouse embryonic fibroblasts. The test is classed as cell-based.
The test system of test [12] is C2C12 cells. Briefly: Real-time PCR gene expression in C2C12 cells during adipogenesis. Type of test: cell-based, mouse. Here is the method:
as §1, §2

[13] abbreviates: brown adipogenic differentiation conditions.

As to `CN1c2ccc([N+](=O)[O-])cc2N=C(c2ccc(C(=O)O)cc2)c2cc3c(cc21)C(C)(C)CCC3(C)C` [HX531], in test [1] (with bexarotene), the “Bex-induced BAT differentiation” value is “reduced”. Moreover, the “white adipose tissue adipogenesis” value in test [2] and in test [3] was “promoted” each time. Moreover, the “bexarotene-induced brown adipogenic induction” value in [4] (with bexarotene, first 2 days, 10 μM each) is “completely abolished”.
As for `O=C(O)CNC(=O)c1c(O)c2ccccc2n(Cc2ccccc2)c1=O` [IOX2], in test [5], the “expression of PPARγ and several brown adipocyte-specific genes” value is given as “significantly induced”; the “response of BAT-like adipocytes to forskolin (Ucp1, Pgc1α)” value is on record as “readily responded to forskolin”.
Take `C=C(c1ccc(C(=O)O)cc1)c1cc2c(cc1C)C(C)(C)CCC2(C)C` [bexarotene]: in test [6] (Prdm16 overexpression), the “potentiation of Prdm16 overexpression-induced Ucp1 expression” value is reported as “more than fourfold”. The lipid droplet size entry in test [6] (added to PRDM16 overexpression vs PRDM16 overexpression alone) is given as “much smaller lipid droplets”. The “expression of PPARγ and BAT-associated genes incl. Prdm16 and Pgc1α” value in test [1] is listed as “higher levels of expression”. In addition, in test [1] (differentiated BAT adipocytes), the “induction of Ucp1 and Pgc1α expression in response to forskolin” value was “potentiated”. For the same compound, in test [7] (qPCR), the “Ucp1 expression in subcutaneous white adipose tissue (subWAT)” value is recorded as “significantly induced although to a lesser extent” and the “thermogenic gene expression (Ucp1, Pgc1α) in brown adipose tissue” value is “marked augmentation”. In [7] (vs control), the “interscapular brown adipose tissue mass (absolute and portion of body weight)” value is “increased significantly”; the “lipid droplets in brown adipose tissue (H&E)” value is reported as “similar, if not smaller”; the “white adipose tissue depots (subWAT, epiWAT) mass” value is recorded as “no statistically significant change”. Besides, in [7] (vs saline), the body weight gain entry is “smaller gain in body weight”, the “carbon dioxide release (VCO2)” value is listed as “released more CO2”, the “oxygen consumption (VO2)” value is “consumed more oxygen” and the physical activity entry is listed as “without changes in physical activity”. Besides, the “total energy expenditure (heat generation)” value in test [7] (vs saline) is on record as “significantly more total energy was expended”. Besides, in test [8], the glucose tolerance test result is given as “improved glucose homeostasis” and the insulin tolerance test entry was “responded to insulin more sensitively”. Besides, in test [8] (vs control), the body weight entry is reported as “lower body weight”, the epididymal adipose tissue entry was “less epididymal adipose tissue” and the “subcutaneous (inguinal) fat” value is reported as “less subcutaneous fat”. The “cells reprogrammed to brown adipose-like cells with multilocular lipid droplets” value in test [9] (RXRα or RXRγ overexpression) is listed as “nearly all cells”. Besides, in test [9] (RXRα-overexpressed C2C12 cells, before typical adipocytes appeared), the “Prdm16 and Ucp1 expression at early stage” value was “induced Prdm16 expression and even more dramatically induced Ucp1 expression”. For the same compound, in test [9] (bexarotene/RXR reprogrammed cells), the “myogenic genes Myf5, MyoD, MyoG and MHCβ” value is “dramatically attenuated”. Moreover, the “Ucp1 expression response to forskolin” value in [9] (bexarotene/RXR-induced BAT-like cells) is “robustly responded”. Further, in test [10], the “expression of browning genes Fgf21, Pgc1α, Ppargc1a, Acsl1, Tbx15, Ptgs2, G0S2” value is “increased expression”; the “white adipogenesis-associated genes Bmp4 and Egr2” value was “repressed”. Also, the “response to forskolin stimulation” value in test [2] was “more robust response”. For the same compound, in test [2] (setting [13]), the “BAT features (small lipid droplets, Ucp1 expression)” value is listed as “induced”; the “white adipose tissue differentiation and PPARγ expression” value is given as “significantly suppressed”. Besides, in test [3], the “induction of Ucp1 and Pgc1α expression compared with cPGI2” value is “much greater than that of the COX-2 agonist cPGI2”. Moreover, the “brown phenotype (thermogenic gene expression to forskolin stimulation)” value in test [3] (2 days at the beginning of adipogenic induction) is reported as “induced the brown phenotype”. Moreover, the “small multilocular lipid droplets and BAT-specific genes Ucp1, Prdm16, PPARα, Pgc1α, Cox7a1, Cox8b” value in test [3] (RXRα or RXRγ overexpression, adipogenic induction) was “induced”. Moreover, the adipogenic reprogramming entry in test [4] (added for 2 days in basal adipogenesis medium) is “dramatically initiated adipogenic reprogramming in C2C12 cells in a dose-dependent manner”. Further, the “appearance of lipid droplets (Oil-red-O)” value in [4] (high-throughput screen of 20,000 compounds) was “led to the appearance of lipid droplets”. Moreover, in test [11], the “brown phenotype / browning” value is reported as “induced a strong brown phenotype” and the white adipogenic phenotype entry is listed as “apparently suppressing”. Also, the Ucp1 expression result in test [11] (even without forskolin stimulation) is “induced in a dose-dependent manner”. In test [12] (Day 2, qPCR confirmation), the “levels of PPARγ, Fabp4, CD36 and RXR/PPARγ targets Pex11a, Angpt14, HK2” value is listed as “significantly increased”. Besides, the “expression of PPARγ, Prdm16 and Pgc1α” value in test [12] (adipogenesis medium, qPCR Day 6) is reported as “significantly induced”. Besides, the “response of induced BAT-like adipocytes to forskolin (Ucp1, Pgc1α)” value in test [12] (forskolin stimulation 4 h) is given as “readily responded to forskolin”.
`Cc1cc(C2CCCCC2)n(O)c(=O)c1` [ciclopirox]: in test [5], the “expression of PPARγ and several brown adipocyte-specific genes” value was “significantly induced”; the “response of BAT-like adipocytes to forskolin (Ucp1, Pgc1α)” value is “readily responded to forskolin”.
